Experimental data published in PubChem BioAssay AID330 (DTP/NCI, 2004).
“And” between values parts separate entries of the source, which are not always exact repeats. Equal values may be shown once. Inconclusive results and toxic doses are left out.

Test system: P388 leukemia ip, CD2F1 mice, survival T/C
Test: NCI In Vivo Anticancer Drug Screen. Data for tumor model P388 Leukemia (intraperitoneal) in CD2F1 (CDF1) mice
Details: endpoint: median survival time, higher = longer survival
Procedure, shortened: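 Mice carrying the transplanted tumor received test compound or vehicle. Survival was recorded in each group, and the value is the treated-group measurement divided by that of the vehicle-treated control group.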

[1] = dose: 50.0 mg/kg/injection, schedule: Q01DX009 (ip), vehicle: saline
[2] = dose: 50.0 mg/kg/injection, schedule: Q01DX009 (ip), vehicle: saline with Tween-80
[3] = dose: 100.0 mg/kg/injection, schedule: Q01DX009 (ip), vehicle: saline with Tween-80
[4] = dose: 200.0 mg/kg/injection, schedule: Q01DX009 (ip), vehicle: saline with Tween-80

**Q.** What does the source list for `Cc1ccc(S(=O)(=O)CC2OCC3OC(C)(C)OC23)cc1` (centres undefined)?
**A.** T/C (dose: 12.5 mg/kg/injection, schedule: Q01DX009 (ip), vehicle: water): 100 % of control; T/C (dose: 25.0 mg/kg/injection, schedule: Q01DX009 (ip), vehicle: water): 93 % of control; T/C (dose: 50.0 mg/kg/injection, schedule: Q01DX009 (ip), vehicle: water): 89 % of control; T/C (dose: 100.0 mg/kg/injection, schedule: Q01DX009 (ip), vehicle: water): 100 % of control; T/C (dose: 200.0 mg/kg/injection, schedule: Q01DX009 (ip), vehicle: water): 94 % of control

**Q.** Which results are given for `CCCCCNS(=O)(=O)c1ccc(C)cc1`?
**A.** T/C (dose: 50.0 mg/kg/injection, schedule: Q01DX009 (ip), vehicle: saline + alcohol): 107 % of control; T/C (dose: 100.0 mg/kg/injection, schedule: Q01DX009 (ip), vehicle: saline + alcohol): 107 % of control; T/C (dose: 200.0 mg/kg/injection, schedule: Q01DX009 (ip), vehicle: saline + alcohol): 118 % of control; T/C (dose: 400.0 mg/kg/injection, schedule: Q01DX009 (ip), vehicle: saline + alcohol): 101 % of control

**Q.** Which T/C (dose: 2.5 mg/kg/injection, schedule: Q01DX005 (ip), vehicle: DMSO) does the source give for `CC(=O)O[C@H]1C(=O)[C@]2(C)[C@@H](OC(C)=O)CC3OC[C@@]3(OC(C)=O)[C@H]2[C@H](OC(=O)c2ccccc2)[C@]2(O)C[C@H](OC(=O)[C@H](OC(C)=O)[C@@H](NC(=O)c3ccccc3)c3ccccc3)C(C)=C1C2(C)C` (some centres undefined) here?
**A.** 100 % of control

**Q.** And the T/C (dose: 5.0 mg/kg/injection, schedule: Q01DX005 (ip), vehicle: DMSO)?
**A.** 102 % of control and 118 % of control

**Q.** What about the T/C (dose: 10.0 mg/kg/injection, schedule: Q01DX005 (ip), vehicle: DMSO) of the same compound?
**A.** 102 % of control and 124 % of control

**Q.** And the T/C (dose: 12.5 mg/kg/injection, schedule: Q01DX005 (ip), vehicle: DMSO)?
**A.** 107 % of control

**Q.** And the T/C (dose: 20.0 mg/kg/injection, schedule: Q01DX005 (ip), vehicle: DMSO)?
**A.** 121 % of control

**Q.** And the T/C (dose: 25.0 mg/kg/injection, schedule: Q01DX005 (ip), vehicle: DMSO)?
**A.** 120 % of control

**Q.** What about the T/C (dose: 40.0 mg/kg/injection, schedule: Q01DX005 (ip), vehicle: DMSO) of the same compound?
**A.** 178 % of control

**Q.** And the T/C (dose: 50.0 mg/kg/injection, schedule: Q01DX005 (ip), vehicle: DMSO)?
**A.** 124 % of control

**Q.** What about the T/C (dose: 100.0 mg/kg/injection, schedule: Q01DX005 (ip), vehicle: DMSO) of the same compound?
**A.** 120 % of control

**Q.** How did the T/C (dose: 5.0 mg/kg/injection, schedule: Q01DX009 (ip), vehicle: saline) turn out when `CC[n+]1c2ccc(C)cc2nc2c3ccccc3c(N)cc21` was run?
**A.** 110 % of control

**Q.** What about the T/C (dose: 10.0 mg/kg/injection, schedule: Q01DX009 (ip), vehicle: saline) of the same compound?
**A.** 106 % of control

**Q.** What about the T/C (dose: 20.0 mg/kg/injection, schedule: Q01DX009 (ip), vehicle: saline) of the same compound?
**A.** 99 % of control

**Q.** With `N#CC(NCc1ccccc1)C(O)c1ccccc1` (centres undefined) as the compound, how does the T/C (dose: 25.0 mg/kg/injection, schedule: Q01DX009 (ip), vehicle: suspension in saline) read?
**A.** 105 % of control

**Q.** And the T/C (dose: 50.0 mg/kg/injection, schedule: Q01DX009 (ip), vehicle: suspension in saline)?
**A.** 105 % of control

**Q.** And the T/C (dose: 100.0 mg/kg/injection, schedule: Q01DX009 (ip), vehicle: suspension in saline)?
**A.** 105 % of control

**Q.** What does the source list for `CC(C)N=C(Cc1ccccc1)NC(C)(C)C`?
**A.** T/C (dose: 12.5 mg/kg/injection, schedule: Q01DX009 (ip), vehicle: saline): 111 % of control; T/C (dose: 25.0 mg/kg/injection, schedule: Q01DX009 (ip), vehicle: saline): 101 % of control; T/C [1]: 98 % of control

**Q.** With `CCO/C=C1/N=C(c2ccc(OC)cc2OC)OC1=O` as the compound, how does the T/C (dose: 60.0 mg/kg/injection, schedule: Q01DX005 (ip), vehicle: saline with Tween-80) read?
**A.** 95 % of control

**Q.** And the T/C (dose: 120.0 mg/kg/injection, schedule: Q01DX005 (ip), vehicle: saline with Tween-80)?
**A.** 104 % of control

**Q.** What about the T/C (dose: 240.0 mg/kg/injection, schedule: Q01DX005 (ip), vehicle: saline with Tween-80) of the same compound?
**A.** 106 % of control

**Q.** How did the T/C [2] turn out when `C#CC(C)(O)C(O)c1ccccc1` (centres undefined) was run?
**A.** 98 % of control

**Q.** And the T/C [3]?
**A.** 109 % of control

**Q.** And the T/C [4]?
**A.** 96 % of control

**Q.** For `COC(=O)CS(=O)(=O)CCCCCS(=O)(=O)CC(=O)OC`, which T/C [1] is on record?
**A.** 97 % of control

**Q.** What about the T/C (dose: 100.0 mg/kg/injection, schedule: Q01DX009 (ip), vehicle: saline) of the same compound?
**A.** 106 % of control

**Q.** And the T/C (dose: 200.0 mg/kg/injection, schedule: Q01DX009 (ip), vehicle: saline)?
**A.** 99 % of control

**Q.** Which T/C [2] does the source give for `O=C(Cc1ccc(-c2ccccc2)cc1)Nc1ccccn1` here?
**A.** 99 % of control

**Q.** And the T/C [3]?
**A.** 108 % of control

**Q.** And the T/C [4]?
**A.** 105 % of control
